These results are taken from US10004701B2, “Methods and compositions for treating infection” (UNIVERSITY OF ROCHESTER, priority 2012, dated 2018).

What all share (test): AK assay 384-well format, Prestwick library screening
One test has as its system E. faecium. The test is classed as cell-based, Enterococcus faecium. As to conditions: 50 μM final drug concentration; for fold induction at 50 µM: Enterococcus faecium, 3 h.
Test [1] concerns S. aureus strain USA300-0114. It counts as cell-based, Staphylococcus aureus. As to conditions: 50 μM final drug concentration; for fold induction at 50 µM: Staphylococcus aureus, USA300, 3 h.
A further test has as its system K. pneumoniae. It counts as cell-based, Klebsiella pneumoniae. As to conditions: 50 μM final drug concentration; for fold induction at 50 µM: Klebsiella pneumoniae, 3 h.
Test [2] relates to A. baumannii strain 98-37-09. It counts as cell-based, Acinetobacter baumannii. As to conditions: 50 μM final drug concentration; for fold induction at 50 µM: Acinetobacter baumannii, 983709, 3 h.
The subject of the next test is P. aeruginosa. It counts as cell-based, Pseudomonas aeruginosa. As to conditions: 50 μM final drug concentration; for fold induction at 50 µM: Pseudomonas aeruginosa, 3 h.
Another test has as its system E. cloacae. The test is classed as cell-based, Enterobacter cloacae. The conditions noted are these: 50 μM final drug concentration; for fold induction at 50 µM: Enterobacter cloacae, 3 h.
In another test the test system is E. coli. It counts as cell-based, Escherichia coli. As to conditions: 50 μM final drug concentration; for fold induction at 50 µM: Escherichia coli, 3 h.
Setting [3] is: cutoff for positive-scoring molecules 3-fold increase, read-out: AK-based Prestwick Library Screening Results, E. faecium (fold increase in extracellular AK activity).
Setting [4] is: cutoff for positive-scoring molecules 3-fold increase, read-out: AK-based Prestwick Library Screening Results, S. aureus (fold increase in extracellular AK activity).
[5] abbreviates: cutoff for positive-scoring molecules 3-fold increase, read-out: AK-based Prestwick Library Screening Results, K. pneumoniae (fold increase in extracellular AK activity).
Setting [6] is: cutoff for positive-scoring molecules 3-fold increase, read-out: AK-based Prestwick Library Screening Results, A. baumannii (fold increase in extracellular AK activity).
Setting [7] is: cutoff for positive-scoring molecules 3-fold increase, read-out: AK-based Prestwick Library Screening Results, P. aeruginosa (fold increase in extracellular AK activity).
[8] abbreviates: cutoff for positive-scoring molecules 3-fold increase, read-out: AK-based Prestwick Library Screening Results, E. cloacae (fold increase in extracellular AK activity).
Where [9] appears, read: cutoff for positive-scoring molecules 3-fold increase, read-out: AK-based Prestwick Library Screening Results, E. coli (fold increase in extracellular AK activity).
The mark [10] stands for this setting: planktonic, cutoff for positive-scoring molecules 3-fold increase.
Where [11] appears, read: 384-well format, cutoff for positive-scoring molecules 3-fold increase, read-out: AK-based Prestwick Library Screening Results, E. faecium (increase in extracellular AK activity).
The mark [12] stands for this setting: 384-well format, cutoff for positive-scoring molecules 3-fold increase, read-out: AK-based Prestwick Library Screening Results, S. aureus (increase in extracellular AK activity).
Where [13] appears, read: 384-well format, cutoff for positive-scoring molecules 3-fold increase, read-out: AK-based Prestwick Library Screening Results, K. pneumoniae (increase in extracellular AK activity).
[14] abbreviates: 384-well format, cutoff for positive-scoring molecules 3-fold increase, read-out: AK-based Prestwick Library Screening Results, A. baumannii (increase in extracellular AK activity).
Setting [15] is: 384-well format, cutoff for positive-scoring molecules 3-fold increase, read-out: AK-based Prestwick Library Screening Results, P. aeruginosa (increase in extracellular AK activity).
Where [16] appears, read: 384-well format, cutoff for positive-scoring molecules 3-fold increase, read-out: AK-based Prestwick Library Screening Results, E. cloacae (increase in extracellular AK activity).
Setting [17] is: 384-well format, cutoff for positive-scoring molecules 3-fold increase, read-out: AK-based Prestwick Library Screening Results, E. coli (increase in extracellular AK activity).
Setting [18] is: 384-well format, cutoff for positive-scoring molecules 3-fold increase.

Where a name gives a salt, the structure may show the parent alone. Read-outs that look alike come from different tables or passages of the source.

As to `NC[C@@H]1O[C@H](O[C@H]2[C@@H](O)[C@H](O[C@@H]3[C@@H](O)[C@H](N)C[C@H](N)[C@H]3O[C@H]3O[C@H](CO)[C@@H](O)[C@H](O)[C@H]3N)O[C@@H]2CO)[C@H](N)[C@@H](O)[C@@H]1O` [Paromomycin sulfate], the fold induction at 50 µM in the test with E. faecium (setting [3]) turned out to be 0.9; in test [1] (setting [4]) it was 1.3; in the test with K. pneumoniae (setting [5]) it was 1; in test [2] (setting [6]), 1.5; in the test on P. aeruginosa (setting [7]), 1; with E. cloacae (setting [8]) it was 1.4. Also, the fold induction at 50 µM in the test on E. coli (setting [9]) came out at 1.4.

For the compound `CC(C)c1c(CN(C)C(C)Cc2ccccc2)n(C)n(-c2ccccc2)c1=O` (stereo not shown) [Famprofazone], the fold induction at 50 µM was 1 in the test on E. faecium ([…], read-out: AK-based Prestwick Library Screening Results, E. faecium (fold increase in extracellular AK activity)); 0.8 in test [1] ([…], read-out: AK-based Prestwick Library Screening Results, S. aureus (fold increase in extracellular AK activity)); 1.1 in the test on K. pneumoniae ([…], read-out: AK-based Prestwick Library Screening Results, K. pneumoniae (fold increase in extracellular AK activity)); 1.1 in test [2] ([…], read-out: AK-based Prestwick Library Screening Results, A. baumannii (fold increase in extracellular AK activity)); 1.2 with P. aeruginosa ([…], read-out: AK-based Prestwick Library Screening Results, P. aeruginosa (fold increase in extracellular AK activity)); 1.5 with E. cloacae ([…], read-out: AK-based Prestwick Library Screening Results, E. cloacae (fold increase in extracellular AK activity)). Also, the fold induction at 50 µM in the test on E. coli ([…], read-out: AK-based Prestwick Library Screening Results, E. coli (fold increase in extracellular AK activity)) was determined as 1.2.

On to Spiramycin, for which the “AK-based Prestwick Library Screening Results, E. faecium (fold increase in extracellular AK activity)” value in the test on E. faecium (setting [10]) came out at 1.0. The “AK-based Prestwick Library Screening Results, S. aureus (fold increase in extracellular AK activity)” value in test [1] (setting [10]) is 6.6. In addition, in the test with K. pneumoniae (setting [10]), the “AK-based Prestwick Library Screening Results, K. pneumoniae (fold increase in extracellular AK activity)” value is 0.8. Further, the “AK-based Prestwick Library Screening Results, A. baumannii (fold increase in extracellular AK activity)” value in test [2] (setting [10]) stood at 0.9. For the same compound, the “AK-based Prestwick Library Screening Results, P. aeruginosa (fold increase in extracellular AK activity)” value in the test on P. aeruginosa (setting [10]) was 0.7. For the same compound, the “AK-based Prestwick Library Screening Results, E. cloacae (fold increase in extracellular AK activity)” value in the test on E. cloacae (setting [10]) was 1.2. In the test on E. coli (setting [10]), the “AK-based Prestwick Library Screening Results, E. coli (fold increase in extracellular AK activity)” value is on record as 0.9.

As to `Clc1ccc2c(c1)C(N1CCNCC1)=Nc1ccccc1O2` [Amoxapine], the fold induction at 50 µM in the test with E. faecium (setting [11]) is 0.9; in test [1] (setting [12]) it was 0.7; with K. pneumoniae (setting [13]), 0.8; in test [2] (setting [14]), 0.8; in the test on P. aeruginosa (setting [15]) it was 0.9; in the test with E. cloacae (setting [16]), 0.9. For the same compound, the fold induction at 50 µM with E. coli (setting [17]) stood at 1.

As for `Nc1cc(N2CCCCC2)nc(N)[n+]1[O-]` [Minoxidil], the fold induction at 50 µM was 1 in the test with E. faecium (setting [11]); 0.7 in test [1] (setting [12]); 0.6 in the test on K. pneumoniae (setting [13]); 0.8 in test [2] (setting [14]); 0.6 in the test on P. aeruginosa (setting [15]); 0.7 with E. cloacae (setting [16]). For the same compound, the fold induction at 50 µM in the test on E. coli (setting [17]) amounted to 0.6.

For the compound Beta-Escin, the “AK-based Prestwick Library Screening Results, E. faecium (fold increase in extracellular AK activity)” value in the test on E. faecium (setting [10]) is 0.9. The “AK-based Prestwick Library Screening Results, S. aureus (fold increase in extracellular AK activity)” value in test [1] (setting [10]) is 0.8. Also, the “AK-based Prestwick Library Screening Results, K. pneumoniae (fold increase in extracellular AK activity)” value in the test with K. pneumoniae (setting [10]) is on record as 0.7. The “AK-based Prestwick Library Screening Results, A. baumannii (fold increase in extracellular AK activity)” value in test [2] (setting [10]) is listed as 0.8. In the test on P. aeruginosa (setting [10]), the “AK-based Prestwick Library Screening Results, P. aeruginosa (fold increase in extracellular AK activity)” value turned out to be 0.7. Besides, the “AK-based Prestwick Library Screening Results, E. cloacae (fold increase in extracellular AK activity)” value in the test with E. cloacae (setting [10]) was 1.4. In addition, the “AK-based Prestwick Library Screening Results, E. coli (fold increase in extracellular AK activity)” value in the test with E. coli (setting [10]) amounted to 0.9.

In the case of `CCN1C[C@]2(C)CC[C@H](O)[C@]34C1[C@@H](C[C@H]23)[C@@]1(O)C[C@H](OC)[C@H]2C[C@@H]4[C@@H]1[C@H]2O` [Karakoline], the fold induction at 50 µM with E. faecium (planktonic, […], read-out: AK-based Prestwick Library Screening Results, E. faecium (fold increase in extracellular AK activity)) is 1; in test [1] (planktonic, […], read-out: AK-based Prestwick Library Screening Results, S. aureus (fold increase in extracellular AK activity)), 1.2; with K. pneumoniae (planktonic, […], read-out: AK-based Prestwick Library Screening Results, K. pneumoniae (fold increase in extracellular AK activity)), 0.9; in test [2] (planktonic, […], read-out: AK-based Prestwick Library Screening Results, A. baumannii (fold increase in extracellular AK activity)), 1; with P. aeruginosa (planktonic, […], read-out: AK-based Prestwick Library Screening Results, P. aeruginosa (fold increase in extracellular AK activity)), 1.1; in the test on E. cloacae (planktonic, […], read-out: AK-based Prestwick Library Screening Results, E. cloacae (fold increase in extracellular AK activity)), 1.3. The fold induction at 50 µM with E. coli (planktonic, […], read-out: AK-based Prestwick Library Screening Results, E. coli (fold increase in extracellular AK activity)) came to 1.

Take `c1ccc2c(c1)CCCC2C1=NCCN1` (stereo not shown) [Tetrahydrozoline hydrochloride]: the fold induction at 50 µM amounted to 1 in the test with E. faecium (setting [3]); 1.1 in test [1] (setting [4]); 0.9 in the test on K. pneumoniae (setting [5]); 1 in test [2] (setting [6]); 1 with P. aeruginosa (setting [7]); 1.4 in the test with E. cloacae (setting [8]). Moreover, in the test with E. coli (setting [9]), the fold induction at 50 µM is 1.4.

As to `CN[C@@H]1[C@@H](O)[C@@H](O[C@@H]2[C@@H](O)[C@H](O[C@H]3OC(CN)=CC[C@H]3N)[C@@H](N)C[C@H]2N)OC[C@]1(C)O` [Sisomicin sulfate], the fold induction at 50 µM with E. faecium (planktonic E. faecium, cutoff for positive-scoring molecules 3-fold increase, read-out: AK-based Prestwick Library Screening Results, E. faecium (increase in extracellular AK activity)) turned out to be 0.9; in test [1] (planktonic S. aureus, cutoff for positive-scoring molecules 3-fold increase, read-out: AK-based Prestwick Library Screening Results, S. aureus (increase in extracellular AK activity)), 0.6; with K. pneumoniae (planktonic K. pneumoniae, cutoff for positive-scoring molecules 3-fold increase, read-out: AK-based Prestwick Library Screening Results, K. pneumoniae (increase in extracellular AK activity)), 0.6; in test [2] (planktonic A. baumannii, cutoff for positive-scoring molecules 3-fold increase, read-out: AK-based Prestwick Library Screening Results, A. baumannii (increase in extracellular AK activity)) it was 0.9; in the test on P. aeruginosa (planktonic P. aeruginosa, cutoff for positive-scoring molecules 3-fold increase, read-out: AK-based Prestwick Library Screening Results, P. aeruginosa (increase in extracellular AK activity)), 0.9; in the test with E. cloacae (planktonic E. cloacae, cutoff for positive-scoring molecules 3-fold increase, read-out: AK-based Prestwick Library Screening Results, E. cloacae (increase in extracellular AK activity)) it was 1. Further, the fold induction at 50 µM with E. coli (planktonic E. coli, cutoff for positive-scoring molecules 3-fold increase, read-out: AK-based Prestwick Library Screening Results, E. coli (increase in extracellular AK activity)) came to 0.8.

`Cc1c(N(C)C)c(=O)n(-c2ccccc2)n1C` [Amidopyrine]: in the test with E. faecium (setting [18]), the “AK-based Prestwick Library Screening Results, E. faecium (increase in extracellular AK activity)” value amounted to 0.9. Moreover, the “AK-based Prestwick Library Screening Results, S. aureus (increase in extracellular AK activity)” value in test [1] (setting [18]) stood at 0.4. Also, in the test with K. pneumoniae (setting [18]), the “AK-based Prestwick Library Screening Results, K. pneumoniae (increase in extracellular AK activity)” value turned out to be 0.5. The “AK-based Prestwick Library Screening Results, A. baumannii (increase in extracellular AK activity)” value in test [2] (setting [18]) is given as 0.4. Besides, the “AK-based Prestwick Library Screening Results, P. aeruginosa (increase in extracellular AK activity)” value in the test on P. aeruginosa (setting [18]) amounted to 0.4. Besides, in the test with E. cloacae (setting [18]), the “AK-based Prestwick Library Screening Results, E. cloacae (increase in extracellular AK activity)” value came out at 0.4. In addition, the “AK-based Prestwick Library Screening Results, E. coli (increase in extracellular AK activity)” value with E. coli (setting [18]) is reported as 0.5.
